Source: patent publication US8232274B2, “Pyridazinone derivatives useful as glucan synthase inhibitors” (Albany Molecular Research, Inc., priority 2007, dated 2012)

What was measured:
glucan synthase [1] = target: T1, glucan synthase (Candida albicans, UniProt O13428); assay: β(1,3) glucan synthase assay, C. albicans BWP17 membrane preparation (IC50); assay type: biochemical; conditions: in vitro fungal enzyme activity assay, read-out: IC50 (μg/mL) Candida albicans (converted)
T1 construct: glucan synthase sources (2 μL permeabilized PM503 cells, or 3 μL membrane preparations from either PM503, BWP17, or ND158); endogenous in cells; host or cells: C. albicans strain BWP17, 100,000 g membrane fraction
T1 sequence (O13428 1-1897): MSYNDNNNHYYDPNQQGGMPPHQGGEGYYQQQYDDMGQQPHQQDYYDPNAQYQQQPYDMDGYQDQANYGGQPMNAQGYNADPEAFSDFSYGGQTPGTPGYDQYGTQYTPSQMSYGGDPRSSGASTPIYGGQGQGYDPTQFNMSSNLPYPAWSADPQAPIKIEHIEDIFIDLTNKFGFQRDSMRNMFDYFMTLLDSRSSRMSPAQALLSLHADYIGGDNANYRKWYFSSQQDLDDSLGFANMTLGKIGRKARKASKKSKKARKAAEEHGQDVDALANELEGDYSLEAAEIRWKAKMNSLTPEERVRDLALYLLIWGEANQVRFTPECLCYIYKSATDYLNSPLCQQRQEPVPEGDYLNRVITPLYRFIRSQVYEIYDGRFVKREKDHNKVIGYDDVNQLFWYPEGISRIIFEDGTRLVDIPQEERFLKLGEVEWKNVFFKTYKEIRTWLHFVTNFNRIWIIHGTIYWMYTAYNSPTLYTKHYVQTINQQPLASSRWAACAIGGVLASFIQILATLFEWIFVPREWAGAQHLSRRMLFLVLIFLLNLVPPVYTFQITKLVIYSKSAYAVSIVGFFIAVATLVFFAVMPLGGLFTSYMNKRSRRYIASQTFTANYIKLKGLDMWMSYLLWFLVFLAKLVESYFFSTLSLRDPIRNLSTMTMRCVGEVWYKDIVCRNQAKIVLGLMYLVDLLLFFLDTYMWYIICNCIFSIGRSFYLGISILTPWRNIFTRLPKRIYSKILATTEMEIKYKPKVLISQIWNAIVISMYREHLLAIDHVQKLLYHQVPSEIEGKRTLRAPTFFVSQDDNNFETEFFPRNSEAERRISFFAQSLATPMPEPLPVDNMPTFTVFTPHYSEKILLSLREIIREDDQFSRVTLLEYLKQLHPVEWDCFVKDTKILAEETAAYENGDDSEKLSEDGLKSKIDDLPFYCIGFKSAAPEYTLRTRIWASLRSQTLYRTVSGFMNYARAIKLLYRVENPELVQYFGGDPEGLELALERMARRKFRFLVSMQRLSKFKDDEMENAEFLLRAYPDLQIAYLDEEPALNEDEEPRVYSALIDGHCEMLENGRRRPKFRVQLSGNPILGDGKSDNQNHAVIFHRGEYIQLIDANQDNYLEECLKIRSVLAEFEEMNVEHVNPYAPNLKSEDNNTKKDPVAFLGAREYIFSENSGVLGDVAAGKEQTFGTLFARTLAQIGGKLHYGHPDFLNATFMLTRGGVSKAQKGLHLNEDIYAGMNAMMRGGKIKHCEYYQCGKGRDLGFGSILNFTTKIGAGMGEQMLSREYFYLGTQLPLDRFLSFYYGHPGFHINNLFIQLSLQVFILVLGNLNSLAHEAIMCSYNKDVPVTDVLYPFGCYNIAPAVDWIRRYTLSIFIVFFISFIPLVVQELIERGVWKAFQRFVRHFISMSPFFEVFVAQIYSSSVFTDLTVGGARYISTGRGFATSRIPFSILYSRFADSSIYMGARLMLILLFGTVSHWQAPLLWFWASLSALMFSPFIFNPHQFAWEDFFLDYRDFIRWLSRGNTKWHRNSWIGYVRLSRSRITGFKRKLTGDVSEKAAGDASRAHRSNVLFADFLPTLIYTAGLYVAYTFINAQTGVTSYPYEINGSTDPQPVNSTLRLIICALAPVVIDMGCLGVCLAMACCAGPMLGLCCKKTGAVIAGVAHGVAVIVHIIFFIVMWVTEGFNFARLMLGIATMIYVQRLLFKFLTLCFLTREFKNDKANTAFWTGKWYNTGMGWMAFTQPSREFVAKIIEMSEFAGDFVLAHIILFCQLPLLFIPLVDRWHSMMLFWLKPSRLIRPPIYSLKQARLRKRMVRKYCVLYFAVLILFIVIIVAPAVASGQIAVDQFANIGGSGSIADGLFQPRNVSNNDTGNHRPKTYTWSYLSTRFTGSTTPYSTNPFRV
T1 sequence (O42825 1-195 partner limits assumed): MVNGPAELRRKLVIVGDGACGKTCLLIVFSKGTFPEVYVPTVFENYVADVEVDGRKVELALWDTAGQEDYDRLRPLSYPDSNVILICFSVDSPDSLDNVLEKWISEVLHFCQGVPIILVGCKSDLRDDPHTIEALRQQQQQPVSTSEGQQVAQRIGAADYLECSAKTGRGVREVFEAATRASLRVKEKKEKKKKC
Description: (§1) β(1,3) Glucan Synthase Assay:
(§2) 2. Preparation of Membrane Fraction of Yeast Cells
(§3) The protocol was modified from Douglas et al. (Journal of Bacteriology, 176, 5686-5696, 1994). For the preparation of S. cerevisiae and C. albicans membrane fractions, 1 liter of YPD supplemented with 0.02 mg/mL adenine and 0.08 mg/mL uracil was inoculated with 10 mL starter culture of PM503 (OD600=4) or the C. albicans strain BWP17 (OD600=12) in the same medium and grown at 30° C. until OD600 reached about 1. A. fumigatus (stain ND158) membranes were prepared by first preparing a spore suspension from agar slants by adding 6 mL of sterile saline, 0.1% Tween-20 solution to each slant, and resuspending by pipetting and scraping. The spore suspensions were used to inoculate two 200 mL flasks containing Sabouraud dextrose broth media. Cultures were incubated at 37° C., 250 rpm for ˜8 hrs. All cells, S. cerevisiae, C. albicans or A. fumigatus were harvested by centrifugation at 5,300 g at 4° C. for 40 minutes. After washing with 100 mL of breakage buffer (0.1 M KPi, pH 7.0, 1 mM EDTA, 1 mM DTT), the cell pellet was resuspended in 50 ml ice-cold breakage buffer. The mixture was transferred to a bead-beater chamber packed in ice (BioSpec Products, Bartlesville, Okla.). To each 50 mL sample was added 50 g of acid-washed glass beads ([…], Sigma). Cells were disrupted using 12×20 second pulses with 2 min-cooling intervals. Cell debris was removed by centrifugation at 3,000 g for 20 minutes at 4° C., and the supernatant was collected and centrifuged at 100,000 g for 1 hour at 4° C. to pellet the membrane fraction. The pellet was resuspended in 5 mL of ice-cold breakage buffer containing 25% glycerol, homogenized with a Dounce tissue homogenizer and stored at −80° C. in small aliquots.
(§4) 3. Glucan Synthase Assay and Compound Screening
The assay was performed according to Mo et at (Journal of Biological Chemistry, 269, 31267-31274, 1994) and Taft et al. (The Journal of Antibiotics, 47, 1001-1009, 1994), in a 96-well Optiplate (PerkinElmer). To each well was added 3 μL 10× compound stock (in 100% DMSO), or 3 μL of 30 μg/mL caspofungin in 100% DMSO (as positive control), or 3 μL 100% DMSO (as negative control), followed by the addition of appropriate amount of glucan synthase sources (2 μL permeabilized PM503 cells, or 3 μL membrane preparations from either PM503, BWP17, or ND158). The reaction was initiated by adding 25 μL reaction buffer (0.6 mM UDP-Glucose 0.6 nCi [U-^14C]DUP-Glucose (327 mCi/mmol, Amersham Bioscience), 20 μM GTP-γ-S, 25 mM NaF, 7.5 mg/mL BSA, 8% glycerol in 75 mM Tris-HCl, pH 7.5). The plate was incubated on a shaker for 1.5 hour at room temperature before being quenched with 250 μL 1% TCA (Trichloroacetic Acid). The quenched reaction was mixed by pipetting, and immediately transferred to a 96-well filter plate (Glass fiber B on 0.65 μm hydrophilic durapore membrane, Millipore) pre-wetted with wash buffer (5% TCA, 60 mM NaPPi). The glucan product was retained on the filter membrane by applying vacuum to the plate using a MultiScreen Resist Vacuum Manifold (Millipore). The filter plate was further washed 4 times with 200 μL wash buffer. The plate was dried at 50° C. for 30 minutes. 100 μL of Microscint-0 (PerkinElmer) was added to each well, and plate was counted in a TopCount NXT plate reader (PerkinElmer).
Dose-response curves were plotted from inhibition data generated. IC50 was determined by fitting the CPM versus the Concentration of the test compound plot with the following equation (4-parameter logistic model, ID Business Solutions XLfit 4.2).

glucan synthase [2] = target: T2, glucan synthase (Saccharomyces cerevisiae, UniProt P38631); assay: β(1,3) glucan synthase assay, S. cerevisiae PM503 permeabilized cells or membrane preparation (IC50); assay type: biochemical
T2 construct: glucan synthase sources (2 μL permeabilized PM503 cells, or 3 μL membrane preparations from either PM503, BWP17, or ND158); endogenous in cells; host or cells: S. cerevisiae strain PM503, permeabilized cells or 100,000 g membrane fraction
T2 sequence (P06780 1-206): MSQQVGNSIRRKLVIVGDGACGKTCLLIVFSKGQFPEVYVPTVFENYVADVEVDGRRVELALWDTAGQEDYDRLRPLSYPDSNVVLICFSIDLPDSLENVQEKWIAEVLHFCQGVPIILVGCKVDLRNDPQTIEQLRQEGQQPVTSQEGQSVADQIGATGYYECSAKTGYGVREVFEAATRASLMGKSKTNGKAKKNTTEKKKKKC
T2 sequence (P38631 whole entry): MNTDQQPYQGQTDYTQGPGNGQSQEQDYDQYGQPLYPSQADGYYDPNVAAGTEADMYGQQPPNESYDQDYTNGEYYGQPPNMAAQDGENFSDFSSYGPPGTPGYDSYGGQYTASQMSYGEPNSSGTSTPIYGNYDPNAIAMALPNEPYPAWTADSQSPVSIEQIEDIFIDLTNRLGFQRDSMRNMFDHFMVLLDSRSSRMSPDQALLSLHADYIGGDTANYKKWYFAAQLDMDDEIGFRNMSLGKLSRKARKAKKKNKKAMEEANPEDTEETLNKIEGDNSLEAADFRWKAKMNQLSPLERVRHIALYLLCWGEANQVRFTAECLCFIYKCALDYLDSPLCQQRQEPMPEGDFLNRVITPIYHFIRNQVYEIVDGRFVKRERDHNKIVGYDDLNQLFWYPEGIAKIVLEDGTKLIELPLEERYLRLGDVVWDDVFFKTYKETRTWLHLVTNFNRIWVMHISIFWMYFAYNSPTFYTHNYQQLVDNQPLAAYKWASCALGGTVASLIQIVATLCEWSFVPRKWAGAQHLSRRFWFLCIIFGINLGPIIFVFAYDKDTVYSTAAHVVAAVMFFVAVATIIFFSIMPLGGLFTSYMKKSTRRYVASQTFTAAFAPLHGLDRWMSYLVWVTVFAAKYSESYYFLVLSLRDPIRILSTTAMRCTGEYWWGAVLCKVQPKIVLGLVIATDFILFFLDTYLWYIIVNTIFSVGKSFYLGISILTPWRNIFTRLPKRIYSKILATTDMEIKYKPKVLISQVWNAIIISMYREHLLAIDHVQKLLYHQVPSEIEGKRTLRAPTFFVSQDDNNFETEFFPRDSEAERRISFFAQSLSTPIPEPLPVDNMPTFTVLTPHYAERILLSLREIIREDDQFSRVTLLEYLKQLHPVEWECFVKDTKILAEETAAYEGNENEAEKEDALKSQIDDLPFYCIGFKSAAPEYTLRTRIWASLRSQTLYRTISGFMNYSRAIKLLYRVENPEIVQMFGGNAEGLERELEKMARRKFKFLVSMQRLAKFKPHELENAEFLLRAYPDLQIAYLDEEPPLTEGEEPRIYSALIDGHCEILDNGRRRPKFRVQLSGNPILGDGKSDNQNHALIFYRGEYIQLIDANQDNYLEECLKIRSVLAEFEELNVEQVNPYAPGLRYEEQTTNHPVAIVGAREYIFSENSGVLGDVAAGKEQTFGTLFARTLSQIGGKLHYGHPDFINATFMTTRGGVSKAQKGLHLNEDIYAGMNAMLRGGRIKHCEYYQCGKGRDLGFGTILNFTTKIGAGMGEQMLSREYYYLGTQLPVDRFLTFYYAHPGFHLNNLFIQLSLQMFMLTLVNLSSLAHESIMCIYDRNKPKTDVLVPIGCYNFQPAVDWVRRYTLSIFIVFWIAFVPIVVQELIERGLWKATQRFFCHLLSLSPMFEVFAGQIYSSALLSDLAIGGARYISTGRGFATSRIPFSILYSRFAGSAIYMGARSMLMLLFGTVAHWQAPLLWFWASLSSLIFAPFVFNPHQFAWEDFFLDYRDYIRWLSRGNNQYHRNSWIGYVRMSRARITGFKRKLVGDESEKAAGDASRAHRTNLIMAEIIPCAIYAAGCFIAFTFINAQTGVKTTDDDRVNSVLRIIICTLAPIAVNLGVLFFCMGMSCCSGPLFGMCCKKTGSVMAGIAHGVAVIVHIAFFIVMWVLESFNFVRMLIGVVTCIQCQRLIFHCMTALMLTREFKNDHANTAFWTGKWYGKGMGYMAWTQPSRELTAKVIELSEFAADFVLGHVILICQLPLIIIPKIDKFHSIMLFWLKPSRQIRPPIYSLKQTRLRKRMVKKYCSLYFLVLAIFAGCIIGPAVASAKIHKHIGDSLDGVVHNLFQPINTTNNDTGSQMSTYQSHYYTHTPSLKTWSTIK
Description: as §1
1. Preparation of Permeabilized Saccharomyces cerevisiae Cells.
Permeabilization of yeast cells was performed according to Crotti et al. (Analytical Biochemistry, 292, 8-16, 2001) with some modifications. A 10 ml-starter culture of the S. cerevisiae strain in YPD medium (1% yeast extract, 2% bacto-peptone, 2% dextrose) with OD600=3-4 was used to inoculate 1 liter of YPD. The culture was grown at 30° C. until […]. Cells were collected by centrifugation (5,300 g for 15 min at 4° C.) and resuspended in buffer (40 mM EDTA, 100 mM β-mercaptoethanol) at 1 g of cell pellet/3.5 ml buffer. The cell suspension was shaken for 30 min at 30° C., followed by centrifugation at 12,000 g for 10 min at 4° C. The cell pellet was washed with 5 ml 0.8 M sorbitol and resuspended in 6.8 ml of 2.9 mM citric acid, 11.3 mM dibasic sodium phosphate, 1 mM EDTA, 0.8 M sorbitol, with constant shaking at 30)C for 30 min. After centrifugation at 12,000 g for […] at 4° C., the pellet was resuspended in 31.3 ml 50 mM Tris-HCl, pH 7.0, and incubated on ice for 5 min. The mixture was then centrifuged at 12,000 g for 10 min at 4 AC, and the pellet was resuspended in 1 ml of 50 mM Tris-HCl and 33% glycerol, pH 7.5. The permeabilized cell preparation was stored at […] in aliquots.
as §2, §3, §4
The assay was performed according to Mo et at (Journal of Biological Chemistry, 269, 31267-31274, 1994) and Taft et al. (The Journal of Antibiotics, 47, 1001-1009, 1994), in a 96-well Optiplate (PerkinElmer). To each well was added 3 μL 10× compound stock (in 100% DMSO), or 3 μL of 30 μg/mL caspofungin in 100% DMSO (as positive control), or 3 μL 100% DMSO (as negative control), followed by the addition of appropriate amount of glucan synthase sources (2 μL permeabilized PM503 cells, or 3 μL membrane preparations from either PM503, BWP17, or ND158). The reaction was initiated by adding 25 μL reaction buffer (0.6 mM UDP-Glucose 0.6 nCi [U-^14C]DUP-Glucose (327 mCi/mmol, Amersham Bioscience), 20 μM GTP-γ-S, 25 mM NaF, 7.5 mg/mL BSA, 8% glycerol in 75 mM Tris-HCl, pH 7.5). […]

SMILES | IC50 (glucan synthase [1]) [nM] | IC50 (glucan synthase [2]) [nM]
CC1(COc2c(N3CCN(S(=O)(=O)Cc4ccc(Br)cc4)CC3)cnn(-c3cc(F)cc(F)c3)c2=O)CC1 [1529Z-33] | 32.8 | 16.4
Nc1ccc(CS(=O)(=O)N2CCN(c3cnn(-c4cccc(Cl)c4)c(=O)c3OCC3CCC3)CC2)cc1 [1529Z-73] | 349 | 165
COCCNc1cccc(CS(=O)(=O)N2CCN(c3cnn(-c4cccc(Cl)c4)c(=O)c3OCC3(C)CC3)CC2)c1 [1951Z] | 83 | 99.6
CC1(COc2c(N3CCN(S(=O)(=O)Cc4ccccc4)CC3)cnn(-c3cc(F)cc(F)c3)c2=O)CC1 [1529Z-191] | 37.7 | 207
O=C(NCc1ccccc1)N1CCN(c2cnn(-c3cccc(Cl)c3)c(=O)c2OC2CCCC2)CC1 [204Z] | 68900 | 203000
Cc1ccc(CNS(=O)(=O)N2CCN(c3cnn(-c4cccc(Cl)c4)c(=O)c3OCC3(C)CC3)CC2)cc1N [1683Z] | 122 | 140
CC1(COc2c(N3CCN(S(=O)(=O)Cc4ccc(C#N)cc4)CC3)cnn(-c3cccc(Cl)c3)c2=O)CC1 [1529Z-56] | 108 | 307
CC1(COc2c(N3CCN(S(=O)(=O)Cc4cccc(N)c4)CC3)cnn(-c3cc(F)cc(F)c3)c2=O)CC1 [1529Z-40] | 55 | 55
CC(C)NC(=O)N1CCN(c2cnn(-c3cccc(F)c3)c(=O)c2OC2Cc3ccccc3C2)CC1 [197Z] | 3870 | 159
CC1(COc2c(N3CCN(S(=O)(=O)NCc4ccc(Cl)nc4)CC3)cnn(-c3cccc(Cl)c3)c2=O)CC1 [1675Z] | 345 | 138
Nc1ccc(CS(=O)(=O)N2CCN(c3cnn(-c4cccc(Cl)c4)c(=O)c3OCc3ccccc3)CC2)cc1 [1529Z-19] | 230 | 70.7
CC(C)(C)COc1c(N2CCN(S(=O)(=O)Cc3ccc(N)cc3)CC2)cnn(-c2cc(F)cc(F)c2)c1=O [1529Z-174] | 183 | 128
CCCCCCCSc1c(N2CCN(S(=O)(=O)Cc3ccccc3)CC2)cnn(-c2ccccc2)c1=O [7Z] | 2030 | 629
CC1CC1COc1c(N2CCN(S(=O)(=O)Cc3ccccc3)CC2)cnn(-c2cc(F)cc(F)c2)c1=O (stereo not drawn) [1529Z-182] | 18.8 | 1.88
Cc1nc2ccc(CS(=O)(=O)N3CCN(c4cnn(-c5cc(F)cc(F)c5)c(=O)c4OCC4(C)CC4)CC3)cc2o1 [1898Z] | 102 | 85.4
CCOCCOc1c(N2CCN(C(=O)CC)CC2)cnn(-c2cccc(C)c2)c1=O [227Z] | 367000 | 367000
N#Cc1cccc(-c2c(N3CCN(S(=O)(=O)Cc4ccccc4)CC3)cnn(-c3cc(F)cc(F)c3)c2=O)c1 [82Z] | 822 | 87.7

SMILES | IC50 (glucan synthase [1]) [nM] | IC50 (glucan synthase [2]) [nM]
O=c1c(OC2Cc3ccccc3CC2F)c(N2CCN(S(=O)(=O)CF)CC2)cnn1-c1cc(F)cc(F)c1 (stereo not drawn) [1267Z] | 633 | 199
CC1(COc2c(N3CCN(S(=O)(=O)Cc4ccc(N)cc4)CC3)cnn(-c3cccc(Cl)c3)c2=O)CC1 [745Z] | 110 | 73.5
CC(C)S(=O)(=O)N1CCN(c2cnn(-c3cccc(F)c3)c(=O)c2OCCCCCCC(C)(C)F)CC1 [801Z] | 55.5 | 18.5
Nc1ccc(CS(=O)(=O)N2CCN(c3cnn(-c4cccc(Cl)c4)c(=O)c3OCC3(CF)CC3)CC2)cc1 [809Z] | 196 | 71.2
O=c1c(OC2CCCC2)c(N2CCN(S(=O)(=O)NCc3ccccc3)CC2)cnn1-c1cccc(Cl)c1 [808Z] | 91.9 | 55.1
O=c1c(-c2ccc(C3CCCCC3)cc2)c(N2CCN(S(=O)(=O)Cc3ccccc3)CC2)cnn1-c1cc(F)cc(F)c1 [96Z] | 1550 | 364
Cc1ccc(CNS(=O)(=O)N2CCN(c3cnn(-c4cc(F)cc(F)c4)c(=O)c3OC3CCC(F)C3)CC2)cc1N (stereo not drawn) [1715Z] | 523 | 169
CC(C)(C)COc1c(N2CCN(S(=O)(=O)Cc3cccc(N)c3)CC2)cnn(-c2cc(F)cc(F)c2)c1=O [1529Z-190] | 219 | 91.3
CNc1cccc(CS(=O)(=O)N2CCN(c3cnn(-c4cccc(Cl)c4)c(=O)c3OCC3(C)CC3)CC2)c1 [1969Z] | 215 | 215
CC(Oc1c(N2CCN(S(=O)(=O)Cc3cccc(N)c3)CC2)cnn(-c2cc(F)cc(F)c2)c1=O)C(C)(C)C (stereo not drawn) [971Zbb] | 2850 | 588
Nc1ccccc1CS(=O)(=O)N1CCN(c2cnn(-c3cc(F)cc(F)c3)c(=O)c2OC2CCCC2)CC1 [738Z] | 128 | 73.3
O=c1c(OC2CCCC2)c(N2CCN(S(=O)(=O)Cc3ccccc3)CC2)cnn1-c1cccc(F)c1 [1402Z] | 117 | 39
CCOCCOc1c(N2CCN(c3ncc([N+](=O)[O-])s3)CC2)cnn(-c2cccc(C)c2)c1=O [240Z] | 201000 | 201000
CC(C)(C)COc1c(N2CCN(S(=O)(=O)Cc3cccc(N)c3)CC2)cnn(-c2cccc(Cl)c2)c1=O [1529Z-151] | 165 | 128
CCCCCCSc1c(N2CCN(S(C)(=O)=O)CC2)cnn(-c2cc(F)cc(F)c2)c1=O [11Z] | 12700 | 2470
COc1cccc(CS(=O)(=O)N2CCN(c3cnn(-c4cccc(Cl)c4)c(=O)c3OCC3(C)CC3)CC2)c1N [Compound 1574ZI] | 87.1 | 87.1
